The text below walks through data of patent US11540518B2, “Fungicidal oxadiazoles” (FMC Corporation, priority 2017, dated 2023).

Holding throughout (type): in vivo
For one test, the system named is Zymoseptoria tritici. Put plainly: Test B: wheat leaf blotch control on wheat seedlings. To be noted: 250 ppm (incl. values marked * = tested at 250 ppm), sprayed to run-off on wheat seedlings, inoculated the following day; 100 = 100% disease control, 0 = no control.
For test [1], the system named is Puccinia recondita f. sp. tritici. The experiment in a line: Test C: wheat leaf rust control on wheat seedlings. To be noted: sprayed to run-off on wheat seedlings, inoculated the following day, 100 = 100% disease control, 0 = no control. The method, boiled down: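 Wheat seedlings were sprayed to run-off with compound suspension (ppm, acetone/water with 250 ppm PEG400), then inoculated with Puccinia recondita f. sp. tritici spores the next day. Plants were held 24 h in saturated atmosphere at 20 °C, then 6 days in a 20 °C growth chamber. Disease control is rated 0-100% relative to untreated controls.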

For the next test, the system named is Phakopsora pachyrhizi. Put plainly: Test A: Asian soybean rust control on soybean seedlings. To be noted: sprayed to run-off on soybean seedlings, inoculated the following day, 100 = 100% disease control, 0 = no control. The method, boiled down:
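Compounds in acetone/water (50/50) with 250 ppm PEG400 were sprayed to run-off on soybean seedlings, which were inoculated with P. pachyrhizi spores the next day. Plants were held in saturated atmosphere at 22° C for 24 h, then 8 days at 22° C, before visual rating (0–100% disease control vs controls).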

Regarding `CC(C)CNC(=O)OC(c1ccccc1)c1ccc(-c2noc(C(F)(F)F)n2)cc1` (stereo not drawn) [Compound 140], in the test on Zymoseptoria tritici, the “Test B disease control rating” value came to 34%. In addition, in test [1] (250 ppm), the “Test C disease control rating” value came to 86%. Also, the “Test A disease control rating” value in the test on Phakopsora pachyrhizi (250 ppm) worked out at 100%.

For the compound `COC(=O)NN=Cc1ccc(-c2noc(C(F)(F)F)n2)s1` [Compound 141], the “Test B disease control rating” value with Zymoseptoria tritici is reported as 93* %. Besides, the “Test C disease control rating” value in test [1] (50 ppm) worked out at 100%. The “Test A disease control rating” value with Phakopsora pachyrhizi (50 ppm) worked out at 100%.

As to `Cc1ccc(C(OC(N)=O)c2ccc(-c3noc(C(F)(F)F)n3)cc2)cc1` (stereo not drawn) [Compound 143], in the test on Zymoseptoria tritici, the “Test B disease control rating” value is given as 69%. For the same compound, in test [1] (250 ppm), the “Test C disease control rating” value is given as 100%. Besides, in the test with Phakopsora pachyrhizi (250 ppm), the “Test A disease control rating” value is 100%.

Turning to `CNC(=O)OC(c1ccc(C)cc1)c1ccc(-c2noc(C(F)(F)F)n2)cc1` (stereo not drawn) [Compound 144], in the test on Zymoseptoria tritici, the “Test B disease control rating” value turned out to be 0%. The “Test C disease control rating” value in test [1] (250 ppm) came to 100%. Further, the “Test A disease control rating” value in the test on Phakopsora pachyrhizi (250 ppm) was determined as 100%.

For `CCNC(=O)OC(c1ccc(C)cc1)c1ccc(-c2noc(C(F)(F)F)n2)cc1` (stereo not drawn) [Compound 145], in the test with Zymoseptoria tritici, the “Test B disease control rating” value was determined as 28%. Besides, the “Test C disease control rating” value in test [1] (250 ppm) is given as 98%. Moreover, in the test on Phakopsora pachyrhizi (250 ppm), the “Test A disease control rating” value was determined as 100%.

For `C=C(C)CNC(=O)OC(c1ccc(C)cc1)c1ccc(-c2noc(C(F)(F)F)n2)cc1` (stereo not drawn) [Compound 146], in the test with Zymoseptoria tritici, the “Test B disease control rating” value is given as 21%. Further, the “Test C disease control rating” value in test [1] (250 ppm) came to 97%. Moreover, in the test with Phakopsora pachyrhizi (250 ppm), the “Test A disease control rating” value is on record as 100%.
